“Also recorded” adds a separate entry of the source.
Assays:
activated T cells [1] = system: activated T cells; design: species or system mice; settings: mouse
activated T cells (P14) = assay type: cell-based, mice; settings: for killing of activated T cells in vitro: agent itself, overnight culture
activated T cells [2] = assay type: cell-based, mice; settings: culture of activated T cells with agent
[3] = system: LCMV-infected prf−/− mice; settings: mouse, in vivo
[4] = system: reactivated memory T cells; assay: Depletion of memory T cells reactivated in vivo with liposomal GP33 peptide in WT mice; settings: etoposide 100 mg/kg/dose x2, or etoposide 25 mg/kg/dose + nutlin 50 mg/kg x4
[5] = system: experimental autoimmune encephalitis; settings: in vivo
HLH = HLH patients, etoposide-based therapy, increased from approximately 0%; cited from earlier work

Row | Compound | potentiation of etoposide killing of activated T cells in vitro (activated T cells (P14)) | killing of activated T cells in vitro (activated T cells (P14)) | further results
1 | NC(=O)Nc1cc(-c2cccc(F)c2)sc1C(=O)N[C@H]1CCCNC1 [AZD7762] | potentiate etoposide killing of activated T cells in vitro | kill activated T cells in vitro; also recorded: selectively kill activated T cells | potentiation of low dose etoposide for depletion of activated T cells in vivo (activated T cells [1]): strongly synergizes with etoposide in vivo; DNA damage (gammaH2AX) in activated T cells in vitro (activated T cells [2]): leads to accumulation of spontaneous DNA damage; also recorded: led to increasing DNA damage
2 | NC(=O)C1CCCc2c1[nH]c1ccc(Cl)cc21 (stereo not drawn) [Ex527] | enhance etoposide killing of activated T cells in vitro | – | –
3 | C=CCn1c(=O)c2cnc(Nc3ccc(N4CCN(C)CC4)cc3)nc2n1-c1cccc(C(C)(C)O)n1 [MK-1775] | potentiate etoposide killing of activated T cells in vitro | selectively kill activated T cells | –
4 | O=C1C(Cl)=C(N2CCOCC2)C(=O)N1c1ccc(Cl)c(Cl)c1 [Ri-1, 3-chloro-1-(3,4-dichlorophenyl)-4-morpholino-1H-pyrrole-2,5-dione] | substantial synergy with etoposide in vitro | kill activated T cells in vitro | –
5 | CCOc1cc(/C=C2/C(=O)N(c3ccccc3)N=C2C)cc(Cl)c1OCC(=O)OC [Sj-172550] | enhance etoposide killing of activated T cells in vitro | – | –
6 | COc1cc([C@@H]2c3cc4c(cc3[C@@H](O[C@@H]3O[C@@H]5CO[C@@H](C)O[C@H]5[C@H](O)[C@H]3O)[C@H]3COC(=O)[C@H]23)OCO4)cc(OC)c1O [etoposide] | – | – | inflammatory cytokines/disease-specific inflammatory markers [3]: decreased inflammatory cytokines/disease-specific inflammatory markers; pancytopenia [3]: alleviated pancytopenia; survival / rescue from HLH-like disease [3]: allowed survival; also recorded: rescues LCMV-infected prf−/− mice from HLH-like disease; depletion of reactivated memory T cells in vivo [4]: ablated; therapeutic effect in experimental autoimmune encephalitis [5]: highly therapeutic; long-term survival (HLH): 55%
7 | COc1ccc(C2=NC(c3ccc(Cl)cc3)C(c3ccc(Cl)cc3)N2C(=O)N2CCNC(=O)C2)c(OC(C)C)c1 (stereo not drawn) [nutlin] | dramatically shifts the etoposide:death, dose:response curve | – | potentiation of low dose etoposide for depletion of activated T cells in vivo (activated T cells [1]): potentiates etoposide immunomodulation in vivo
